# Assays:
# Type in all cases: in vivo
# kochia (Kochia scoparia) [1] = assay: Test A postemergence; conditions: Bassia scoparia, post-emergence, 240 h, 0 to 100 scale, read-out: Plant response rating, Kochia
# How it was run: (§1)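 Pre- and postemergence greenhouse screen. Soil: loam + sand. Spray carrier: solvent mixture, non-phytotoxic, with surfactant. Post timing at 1–2 leaves, height 2–10 cm. Readout: visual injury on a 0–100 scale roughly 10 days after application, untreated plants as reference.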
# [2] = system: blackgrass (Alopecurus myosuroides); assay: Test A postemergence; conditions: Alopecurus myosuroides, post-emergence, 240 h, 0 to 100 scale, read-out: Plant response rating, Blackgrass
# How it was run: as §1
# [3] = system: barnyardgrass (Echinochloa crus-galli); assay: Test A postemergence; conditions: Echinochloa crus-galli, post-emergence, 240 h, 0 to 100 scale, read-out: Plant response rating, Barnyardgrass
# How it was run: as §1
# [4] = system: wheat (Triticum aestivum); assay: Test A postemergence; conditions: Triticum aestivum, post-emergence, 240 h, 0 to 100 scale, read-out: Plant response rating, Wheat
# How it was run: as §1
# [5] = system: giant foxtail (Setaria faberii); assay: Test A postemergence; conditions: Setaria faberi, post-emergence, 240 h, 0 to 100 scale, read-out: Plant response rating, Foxtail, Giant
# How it was run: as §1
# corn (Zea mays) = assay: Test A postemergence; conditions: Zea mays, post-emergence, 240 h, 0 to 100 scale
# How it was run: as §1
# [6] = system: galium (catchweed bedstraw, Galium aparine); assay: Test A postemergence; conditions: Galium, post-emergence, 240 h, 0 to 100 scale, read-out: Plant response rating, Galium
# How it was run: as §1
# [7] = system: pigweed (Amaranthus retroflexus); assay: Test A postemergence; conditions: Amaranthus retroflexus, post-emergence, 240 h, 0 to 100 scale, read-out: Plant response rating, Pigweed
# How it was run: as §1
# [8] = system: ragweed (common ragweed, Ambrosia elatior); assay: Test A postemergence; conditions: Ambrosia artemisiifolia, post-emergence, 240 h, 0 to 100 scale, read-out: Plant response rating, Ragweed
# How it was run: as §1
# [9] = system: Italian ryegrass (Lolium multiflorum); assay: Test A postemergence; conditions: Lolium multiflorum, post-emergence, 240 h, 0 to 100 scale, read-out: Plant response rating, Ryegrass, Italian
# How it was run: as §1
# [10] = system: sedge, umbrella (small-flower umbrella sedge, Cyperus difformis); assay: Test B flooded paddy; conditions: Cyperus difformis, 336 h; 250 g ai/ha, Flood, 13 to 15 days, scale 0 (no effect) to 100 (complete control); read-out: Plant response rating, Sedge, Umbrella
# How it was run: (§2)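 In-water treatment: compound dosed into 3 cm flood over soil, water level unchanged throughout. Controls run alongside; visual assessment at day 13–15.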
# [11] = system: barnyardgrass (Echinochloa crus-galli); assay: Test B flooded paddy; conditions: Echinochloa crus-galli, 336 h; 250 g ai/ha, Flood, 13 to 15 days, scale 0 (no effect) to 100 (complete control); read-out: Plant response rating, Barnyardgrass
# How it was run: as §2
# rice (Oryza sativa) = assay: Test B flooded paddy; conditions: Oryza sativa, 336 h; 250 g ai/ha, Flood, 13 to 15 days, scale 0 (no effect) to 100 (complete control); read-out: Plant response rating, Rice
# How it was run: as §2
# [12] = system: ducksalad (Heteranthera limosa); assay: Test B flooded paddy; conditions: Heteranthera limosa, 336 h; 250 g ai/ha, Flood, 13 to 15 days, scale 0 (no effect) to 100 (complete control); read-out: Plant response rating, Ducksalad
# How it was run: as §2
# kochia (Kochia scoparia) [13] = assay: Test A preemergence; conditions: Bassia scoparia, pre-emergence, 240 h, 0 to 100 scale (0 no effect, 100 complete control), read-out: Kochia plant response rating
# How it was run: as §1
# [14] = system: barnyardgrass (Echinochloa crus-galli); assay: Test A preemergence; conditions: Echinochloa crus-galli, pre-emergence, 240 h
# How it was run: as §1
# [15] = system: giant foxtail (Setaria faberii); assay: Test A preemergence; conditions: Setaria faberi, pre-emergence, 240 h, 0 to 100 scale (0 no effect, 100 complete control), read-out: Foxtail, Giant plant response rating
# How it was run: as §1
# [16] = system: pigweed (Amaranthus retroflexus); assay: Test A preemergence; conditions: Amaranthus retroflexus, pre-emergence, 240 h, 0 to 100 scale (0 no effect, 100 complete control), read-out: Pigweed plant response rating
# How it was run: as §1
# [17] = system: ragweed (common ragweed, Ambrosia elatior); assay: Test A preemergence; conditions: Ambrosia artemisiifolia, pre-emergence, 240 h, 0 to 100 scale (0 no effect, 100 complete control), read-out: Ragweed plant response rating
# How it was run: as §1
# [18] = system: Italian ryegrass (Lolium multiflorum); assay: Test A preemergence; conditions: Lolium multiflorum, pre-emergence, 240 h, 0 to 100 scale (0 no effect, 100 complete control), read-out: Ryegrass, Italian plant response rating
# How it was run: as §1
# [19] = system: yellow nutsedge (Cyperus esculentus); assay: Test C preemergence; conditions: Cyperus, pre-emergence, 336 h, scale 0 to 100, read-out: Plant response rating, Nutsedge, Yellow
# How it was run: (§3)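 Treatment is preemergence to seeds in a loam and sand soil, or postemergence to plants 2 to 18 cm high in a peat moss-based medium. The compound is delivered in a non-phytotoxic solvent mixture including surfactant. Effects are judged by eye 13 to 15 days later on a 0 to 100 scale.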
# [20] = system: lambsquarters (Chenopodium album); assay: Test C preemergence; conditions: Chenopodium album, pre-emergence, 336 h, scale 0 to 100, read-out: Plant response rating, Lambsquarters
# How it was run: as §3
# [21] = system: galium (catchweed bedstraw, Galium aparine); assay: Test C preemergence; conditions: Galium, pre-emergence, 336 h, scale 0 to 100, read-out: Plant response rating, Galium
# How it was run: as §3
smiles,measurement,setting,value
"Fc1cnc(Oc2c(F)ccc(F)c2Oc2ncc(F)cn2)nc1 [Compound 29, 2,2′-[(3,6-difluoro-1,2-phenylene)bis(oxy)]bis[5-fluoropyrimidine]]",pest or weed control at 31 g/ha,kochia (Kochia scoparia) [1]; 31 g ai/ha,80%
same,pest or weed control at 125 g/ha,kochia (Kochia scoparia) [1]; 125 g ai/ha,100%
same,pest or weed control at 31 g/ha,[2]; 31 g ai/ha,80%
same,pest or weed control at 125 g/ha,[2]; 125 g ai/ha,90%
same,pest or weed control at 31 g/ha,[3]; 31 g ai/ha,20%
same,pest or weed control at 125 g/ha,[3]; 125 g ai/ha,80%
same,plant injury at 31 g/ha,[4]; 31 g ai/ha,30%
same,plant injury at 125 g/ha,[4]; 125 g ai/ha,80%
same,pest or weed control at 31 g/ha,[5]; 31 g ai/ha,30%
same,pest or weed control at 125 g/ha,[5]; 125 g ai/ha,60%
same,"Corn plant response rating (crop injury, 0 = no effect, 100 = complete kill) at 31 g/ha",corn (Zea mays); 31 g ai/ha,20%
same,"Corn plant response rating (crop injury, 0 = no effect, 100 = complete kill) at 125 g/ha",corn (Zea mays); 125 g ai/ha,90%
same,pest or weed control at 31 g/ha,[6]; 31 g ai/ha,100%
same,pest or weed control at 125 g/ha,[6]; 125 g ai/ha,100%
same,pest or weed control at 31 g/ha,[7]; 31 g ai/ha,90%
same,pest or weed control at 125 g/ha,[7]; 125 g ai/ha,90%
same,pest or weed control at 31 g/ha,[8]; 31 g ai/ha,40%
same,pest or weed control at 125 g/ha,[8]; 125 g ai/ha,60%
same,pest or weed control at 31 g/ha,[9]; 31 g ai/ha,20%
same,pest or weed control at 125 g/ha,[9]; 125 g ai/ha,20%
same,pest or weed control at 250 g/ha,[10],75%
same,pest or weed control at 250 g/ha,[11],90%
same,plant injury at 250 g/ha,rice (Oryza sativa),85%
same,pest or weed control at 250 g/ha,[12],90%
same,pest or weed control at 31 g/ha,kochia (Kochia scoparia) [13]; 31 g ai/ha,80%
same,pest or weed control at 125 g/ha,kochia (Kochia scoparia) [13]; 125 g ai/ha,100%
same,pest or weed control at 31 g/ha,"[14]; 31 g ai/ha, 0 to 100 scale (0 no effect, 100 complete control), read-out: Barnyardgrass plant response rating",10%
same,pest or weed control at 125 g/ha,"[14]; 125 g ai/ha, 0 to 100 scale, read-out: Plant response rating, Barnyardgrass",100%
same,pest or weed control at 31 g/ha,[15]; 31 g ai/ha,80%
same,pest or weed control at 125 g/ha,[15]; 125 g ai/ha,100%
same,pest or weed control at 31 g/ha,[16]; 31 g ai/ha,100%
same,pest or weed control at 125 g/ha,[16]; 125 g ai/ha,100%
same,pest or weed control at 31 g/ha,[17]; 31 g ai/ha,0%
same,pest or weed control at 125 g/ha,[17]; 125 g ai/ha,90%
same,pest or weed control at 31 g/ha,[18]; 31 g ai/ha,0%
same,pest or weed control at 125 g/ha,[18]; 125 g ai/ha,30%
same,pest or weed control at 31 g/ha,"[19]; 31 g ai/ha, preemergence",0%
same,pest or weed control at 62 g/ha,"[19]; 62 g ai/ha, preemergence",0%
same,pest or weed control at 125 g/ha,"[19]; 125 g ai/ha, preemergence",40%
same,pest or weed control at 16 g/ha,"[19]; Preemergence, 16 g ai/ha",0%
same,pest or weed control at 31 g/ha,"[20]; 31 g ai/ha, preemergence",85%
same,pest or weed control at 62 g/ha,"[20]; 62 g ai/ha, preemergence",85%
same,pest or weed control at 125 g/ha,"[20]; 125 g ai/ha, preemergence",90%
same,pest or weed control at 16 g/ha,"[20]; Preemergence, 16 g ai/ha",80%
same,pest or weed control at 31 g/ha,"[21]; 31 g ai/ha, preemergence",100%
same,pest or weed control at 62 g/ha,"[21]; 62 g ai/ha, preemergence",100%
same,pest or weed control at 125 g/ha,"[21]; 125 g ai/ha, preemergence",100%
same,pest or weed control at 16 g/ha,"[21]; Preemergence, 16 g ai/ha",95%

# From patent publication US20170190671A1, “BIS(ARYL)CATECHOL DERIVATIVES AS HERBICIDES” (E I DU PONT DE NEMOURS AND COMPANY, priority 2014, published 2017)
